According to patent publication US10647699B2, “Substituted 2-oxyimidazolylcarboxamides as pesticides” (Bayer CropScience Aktiengesellschaft, priority 2016, dated 2020):

Tests used:
[1] = log P by HPLC on reversed-phase columns (OECD Guideline 117), neutral range; assay type: physicochemical; conditions: for chromatographic logP: reversed-phase (C18) HPLC column, read-out: LogP-neutral
Tetranychus urticae = Tetranychus urticae spray test, OP-resistant, bean leaf discs; assay type: in vivo; conditions: after 6 days, application rate 500 g/ha
Description: Tetranychus urticae—Spray Test, OP-Resistant
(§1) To produce a suitable preparation of active compound, 1 part by weight of active compound is dissolved using the specified parts by weight of solvent and made up with water containing an emulsifier concentration of 1000 ppm until the desired concentration is attained. To produce further test concentrations, the formulation is diluted with emulsifier-containing water.
Discs of bean leaves (Phaseolus vulgaris) infested with all stages of the greenhouse red spider mite (Tetranychus urticae) are sprayed with an active compound formulation of the desired concentration.
After 6 days, the efficacy in % is determined. 100% means that all the spider mites have been killed; 0% means that no spider mites have been killed.

Myzus persicae [2] = assay: Myzus persicae spray test on bell pepper plants; assay type: in vivo; conditions: after 6 days, application rate 20 ppm
Description: Myzus persicae-Spray Test
(§2) Solvent: 14 parts by weight of dimethylformamide
(§3) Emulsifier: alkylaryl polyglycol ether
as §1, with “water. If the addition of ammonium salts or/and penetrants is required, these are each added in a concentration of 1000 ppm to the formulation solution.” for “water.”
Bell pepper plants (Capsicum annuum) severely infested with the green peach aphid (Myzus persicae) are treated by spraying with the active compound formulation in the desired concentration.
After 6 days, the kill in % is determined. 100% means that all of the aphids have been killed; 0% means that none of the aphids have been killed.

Aphis gossypii = Aphis gossypii spray test on cotton plants; assay type: in vivo; conditions: after 6 days, application rate 20 ppm, cotton plants; for pest or weed control at 20 ppm: Aphis gossypii, 144 h, read-out: efficacy (kill)
Description: Aphis gossypii—Spray Test
as §2, §3
as §1, with “water. If the addition of ammonium salts or/and penetrants is required, these are each added in a concentration of 1000 ppm to the formulation solution.” for “water.”
Cotton plants (Gossypium hirsutum) which are heavily infested by the cotton aphid (Aphis gossypii) are sprayed with an active compound formulation of the desired concentration.
After 6 days, the kill in % is determined. 100% means that all the aphids have been killed; 0% means that no aphids have been killed.

Myzus persicae [3] = assay: Myzus persicae oral test (MYZUPE O); assay type: in vivo; conditions: for efficacy / pest or weed control at 20 ppm: after 5 days, application rate 20 ppm; for Emax at 0.8 ppm / pest or weed control at 20 ppm / Emax at 4 ppm: Myzus persicae, po, 120 h; for Emax at 0.8 ppm / Emax at 4 ppm: MYZUPE O, 5 dat, read-out: % efficacy; for pest or weed control at 20 ppm: read-out: efficacy
Myzus persicae [4] = assay: Myzus persicae spray test (MYZUPE), Chinese cabbage leaf discs; assay type: in vivo; conditions: for Emax at 100 g/ha / pest or weed control at 500 g/ha: Myzus persicae, foliar, 144 h; for Emax at 100 g/ha: MYZUPE, 100 g of ai/ha, 6 dat, read-out: % efficacy; for pest or weed control at 500 g/ha / efficacy: application rate 500 g/ha; for pest or weed control at 500 g/ha: read-out: efficacy
Boophilus microplus = Boophilus microplus injection test; assay type: in vivo; conditions: 20 μg/animal, assessed after 7 days
Description: Boophilus microplus—Injection Test Solvent: dimethyl sulphoxide To produce a suitable preparation of active compound, 10 mg of active compound are mixed with 0.5 ml of solvent and the concentrate is diluted with solvent to the desired concentration. […] The animals are transferred into dishes and kept in a climate-controlled room. Efficacy is assessed after 7 days by laying of fertile eggs. Eggs which are not visibly fertile are stored in a climate-controlled cabinet until the larvae hatch after about 42 days.

SMILES	LogP-neutral ([1]; pH 7.8)	efficacy (Tetranychus urticae)	efficacy (kill) (Aphis gossypii)	efficacy (Myzus persicae [3])	efficacy (Myzus persicae [4]; after 5 days)	further results
CN(C(=O)c1cnc(Oc2cccc(Oc3ccccc3)c2)n1C)c1cccnc1 [Example II-81]	2.72	100%				
CN(C(=O)c1cnc(Oc2ccc(F)cc2)n1C)c1cccnc1 [Example II-19]			100%	100%		LogP-neutral ([1]; HPLC, neutral range pH 7.8): 1.76; efficacy (kill) (Myzus persicae [2]): 95%
CN(C(=O)c1cnc(Oc2ccc(Oc3ccc(Cl)nc3)nc2)n1C)c1cccnc1 [Example II-45]			99%	100%		efficacy (kill) (Myzus persicae [2]): 98%
CN(C(=O)c1cnc(Oc2cc(F)ccc2F)n1C)c1cccnc1 [Example II-14]		90%				chromatographic logP ([1]; HPLC, neutral range pH 7.8): 1.87; Emax at 100 g/ha (Myzus persicae [4]): 90%; pest or weed control at 500 g/ha (Myzus persicae [4]; after 6 days): 100%; pest or weed control at 20 ppm (Aphis gossypii): 99%; Emax at 0.8 ppm (Myzus persicae [3]): 90%; pest or weed control at 20 ppm (Myzus persicae [3]): 100%
CN(C(=O)c1cnc(OCCC(F)(F)F)n1C)c1cccnc1 [Example II-23]		100%				Emax at 100 g/ha (Myzus persicae [4]): 90%; pest or weed control at 500 g/ha (Myzus persicae [4]; after 6 days): 90%; pest or weed control at 20 ppm (Aphis gossypii): 95%; Emax at 0.8 ppm (Myzus persicae [3]): 100%; Emax at 4 ppm (Myzus persicae [3]): 100%; pest or weed control at 20 ppm (Myzus persicae [3]): 100%
CN(C(=O)c1cnc(Oc2ccc(F)c(Cl)c2)n1C)c1cccnc1 [Example II-89]		100%		100%	100%	LogP-neutral ([1]; HPLC, neutral range pH 7.8): 2.17
CC(C)Oc1ncc(C(=O)N(C)c2cccnc2)n1C [Example II-1]						chromatographic logP ([1]; HPLC, neutral range pH 7.8): 1.47; efficacy (kill) (Myzus persicae [2]): 100%; pest or weed control at 20 ppm (Aphis gossypii): 100%; Emax at 0.8 ppm (Myzus persicae [3]): 90%; Emax at 4 ppm (Myzus persicae [3]): 100%; pest or weed control at 20 ppm (Myzus persicae [3]): 100%; efficacy (no fertile eggs laid) (Boophilus microplus): 100%
CN(C(=O)c1cnc(Oc2ccc(F)nc2)n1C)c1cccnc1 [Example II-40]			100%	100%	100%	LogP-neutral ([1]; HPLC, neutral range pH 7.8): 1.33; efficacy (no fertile eggs laid) (Boophilus microplus): 80%
C=CCOc1ncc(C(=O)N(C)c2cccnc2)n1C [Example II-37]	1.38	90%	100%	100%	100%	
CN(C(=O)c1cnc(Oc2ccccc2)n1C)c1cccnc1 [Example II-24]			98%	100%	100%	LogP-neutral ([1]; HPLC, neutral range pH 7.8): 1.68
CN(C(=O)c1cnc(OCCC(F)(C(F)(F)F)C(F)(F)F)n1C)c1cccnc1 [Example II-34]	2.51		100%	100%	100%	
CSCCOc1ncc(C(=O)N(C)c2cccnc2)n1C [Example II-6]	1.45		99%	100%		efficacy (Myzus persicae [4]; after 6 days): 90%
CCN(C(=O)c1cnc(OC(C)C)n1C)c1cccnc1 [Example II-46]	1.7		100%	100%	100%	

Continued, in another order:

LogP-neutral ([1]; pH 7.8)	SMILES	efficacy (Tetranychus urticae)	efficacy (kill) (Aphis gossypii)	efficacy (Myzus persicae [3])	efficacy (Myzus persicae [4]; after 5 days)	further results
2.59	Cn1c(C(=O)N(c2cccnc2)C2CC2)cnc1Oc1cccc(C(F)(F)F)c1 [Example II-94]	90%		100%		
3.19	CCCCSc1cccc(Oc2ncc(C(=O)N(C)c3cccnc3)n2C)c1 [Example II-82]	100%		100%	100%	
2.87	CN(C(=O)c1cnc(Oc2cc(Cl)cc(C(F)(F)F)c2)n1C)c1cccnc1 [Example II-87]	90%		100%	90%	
2.09	CSc1cccc(Oc2ncc(C(=O)N(C)c3cccnc3)n2C)c1 [Example II-26]		100%	100%	100%	
1.83	CN(C(=O)c1cnc(Oc2cncc(C(F)(F)F)c2)n1C)c1cccnc1 [Example II-43]		100%	100%	90%	
2.52	CN(C(=O)c1cnc(Oc2cccc(OC(F)(F)F)c2)n1C)c1cccnc1 [Example II-27]		98%	100%	100%	
